Paper PMC7180948, “New Insights into 4-Anilinoquinazolines as Inhibitors of Cardiac Troponin I–Interacting Kinase (TNNi3K)” (Molecules, 2020)

Key:
Assay in all cases: biochemical
Set-up in all cases: KINOMEscan competition binding panel (Eurofins DiscoverX), single concentration, % inhibition
Settings in all cases: read-out: 7 at 1 µM % inhibition
[1] = target: AURKB (Homo sapiens, UniProt Q96GD4)
Outline: (§1)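 Values come from single-concentration (1 µM) profiling in the Eurofins DiscoverX KINOMEscan competition-binding platform, which covers over 400 kinases.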

[2] = target: T1, DCAMKL2 (Homo sapiens, UniProt Q8N568)
T1 construct: gene DCLK2
Outline: as §1

[3] = target: BUB1 (Homo sapiens, UniProt O43683)
Outline: as §1

[4] = target: CSF1R (Homo sapiens, UniProt P07333)
Outline: as §1

[5] = target: CDK8 (Homo sapiens, UniProt P49336)
Outline: as §1

[6] = target: DMPK (Homo sapiens, UniProt Q09013)
Outline: as §1

[7] = target: T2, JAK3(JH1domain-catalytic) (Homo sapiens, UniProt P52333)
T2 construct: JH1domain-catalytic
Outline: as §1

[8] = target: T3, PKAC-alpha (Homo sapiens, UniProt P17612)
T3 construct: gene PRKACA
Outline: as §1

[9] = target: T4, ABL1(Y253F)-phosphorylated (Homo sapiens, UniProt P00519, Y253F)
T4 construct: phosphorylated
Outline: as §1

[10] = target: EPHB4 (Homo sapiens, UniProt P54760)
Outline: as §1

[11] = target: T5, ABL1(F317I)-phosphorylated (Homo sapiens, UniProt P00519, F317I)
T5 construct: phosphorylated
Outline: as §1

[12] = target: IRAK3 (Homo sapiens, UniProt Q9Y616)
Outline: as §1

[13] = target: T6, TRKB (Homo sapiens, UniProt Q16620)
T6 construct: gene NTRK2
Outline: as §1

[14] = target: AKT2 (Homo sapiens, UniProt P31751)
Outline: as §1

[15] = target: GRK1 (Homo sapiens, UniProt Q15835)
Outline: as §1

[16] = target: IGF1R (Homo sapiens, UniProt P08069)
Outline: as §1

[17] = target: BLK (Homo sapiens, UniProt P51451)
Outline: as §1

[18] = target: T7, MST4 (Homo sapiens, UniProt Q9P289)
T7 construct: gene STK26
Outline: as §1

[19] = target: FGFR3 (Homo sapiens, UniProt P22607)
Outline: as §1

[20] = target: HIPK4 (Homo sapiens, UniProt Q8NE63)
Outline: as §1

[21] = target: T8, p38-delta (Homo sapiens, UniProt O15264)
T8 construct: gene MAPK13
Outline: as §1

[22] = target: FER (Homo sapiens, UniProt P16591)
Outline: as §1

[23] = target: T9, PIP5K2B (Homo sapiens, UniProt P78356)
T9 construct: gene PIP4K2B
Outline: as §1

[24] = target: WNK1 (Homo sapiens, UniProt Q9H4A3)
Outline: as §1

Sequence of HIPK4 (Q8NE63 whole entry): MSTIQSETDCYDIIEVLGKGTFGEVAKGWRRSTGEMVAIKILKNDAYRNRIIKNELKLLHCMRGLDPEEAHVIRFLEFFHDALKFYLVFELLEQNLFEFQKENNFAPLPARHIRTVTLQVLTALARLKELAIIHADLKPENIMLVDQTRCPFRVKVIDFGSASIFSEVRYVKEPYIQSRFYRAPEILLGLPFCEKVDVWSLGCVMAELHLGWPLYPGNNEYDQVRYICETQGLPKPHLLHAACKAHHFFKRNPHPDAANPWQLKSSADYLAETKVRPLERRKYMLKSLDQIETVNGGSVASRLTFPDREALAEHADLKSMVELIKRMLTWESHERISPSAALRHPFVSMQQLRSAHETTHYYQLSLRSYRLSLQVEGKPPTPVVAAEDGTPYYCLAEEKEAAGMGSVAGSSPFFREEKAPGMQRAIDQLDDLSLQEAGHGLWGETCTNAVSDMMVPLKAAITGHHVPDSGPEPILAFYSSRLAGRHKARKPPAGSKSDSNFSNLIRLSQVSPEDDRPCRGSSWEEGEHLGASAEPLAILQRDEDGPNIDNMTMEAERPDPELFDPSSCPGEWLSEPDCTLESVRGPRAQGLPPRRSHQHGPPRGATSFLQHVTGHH
T1 sequence (Q8N568 whole entry): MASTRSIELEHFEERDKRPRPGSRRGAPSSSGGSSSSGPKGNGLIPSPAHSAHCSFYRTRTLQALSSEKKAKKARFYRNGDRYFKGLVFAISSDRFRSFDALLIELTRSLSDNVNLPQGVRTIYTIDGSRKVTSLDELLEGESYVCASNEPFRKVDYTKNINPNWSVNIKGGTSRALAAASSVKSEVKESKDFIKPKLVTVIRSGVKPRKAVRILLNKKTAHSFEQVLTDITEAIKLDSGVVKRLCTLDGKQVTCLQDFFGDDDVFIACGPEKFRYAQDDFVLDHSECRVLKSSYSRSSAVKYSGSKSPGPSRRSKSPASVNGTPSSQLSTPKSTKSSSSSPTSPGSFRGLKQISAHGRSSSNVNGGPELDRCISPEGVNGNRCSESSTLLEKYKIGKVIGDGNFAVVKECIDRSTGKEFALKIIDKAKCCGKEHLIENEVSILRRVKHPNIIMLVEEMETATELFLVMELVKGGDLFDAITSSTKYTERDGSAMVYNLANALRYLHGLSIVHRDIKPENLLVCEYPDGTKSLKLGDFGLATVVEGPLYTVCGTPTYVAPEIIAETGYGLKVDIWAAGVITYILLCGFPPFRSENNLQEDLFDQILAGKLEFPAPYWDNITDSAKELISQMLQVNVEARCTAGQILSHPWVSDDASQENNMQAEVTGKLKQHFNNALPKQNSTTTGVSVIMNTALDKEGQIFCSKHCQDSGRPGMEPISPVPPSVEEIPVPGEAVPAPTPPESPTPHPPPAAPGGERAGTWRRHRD
Sequence of FGFR3 (P22607 whole entry): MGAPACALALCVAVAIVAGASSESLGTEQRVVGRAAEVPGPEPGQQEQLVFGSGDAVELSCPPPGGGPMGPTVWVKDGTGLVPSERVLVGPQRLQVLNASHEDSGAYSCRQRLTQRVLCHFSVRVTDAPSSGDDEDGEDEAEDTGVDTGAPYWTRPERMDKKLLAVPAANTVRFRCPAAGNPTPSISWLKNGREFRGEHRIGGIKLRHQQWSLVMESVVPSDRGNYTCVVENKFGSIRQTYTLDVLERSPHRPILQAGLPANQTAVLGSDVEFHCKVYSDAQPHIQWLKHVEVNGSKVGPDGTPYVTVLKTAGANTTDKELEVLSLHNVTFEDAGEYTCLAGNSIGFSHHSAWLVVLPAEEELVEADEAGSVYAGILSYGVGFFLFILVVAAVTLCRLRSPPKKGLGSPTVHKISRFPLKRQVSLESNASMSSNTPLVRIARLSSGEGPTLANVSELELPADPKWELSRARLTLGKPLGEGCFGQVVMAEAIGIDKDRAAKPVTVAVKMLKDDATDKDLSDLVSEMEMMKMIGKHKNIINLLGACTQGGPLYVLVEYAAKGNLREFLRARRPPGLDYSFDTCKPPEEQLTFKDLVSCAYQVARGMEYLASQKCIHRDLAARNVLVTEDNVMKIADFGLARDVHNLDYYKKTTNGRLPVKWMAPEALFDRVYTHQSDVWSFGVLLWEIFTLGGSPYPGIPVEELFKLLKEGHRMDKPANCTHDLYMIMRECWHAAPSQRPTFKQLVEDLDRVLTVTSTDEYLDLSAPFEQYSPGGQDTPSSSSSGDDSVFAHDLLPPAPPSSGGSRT
Sequence of BLK (P51451 whole entry): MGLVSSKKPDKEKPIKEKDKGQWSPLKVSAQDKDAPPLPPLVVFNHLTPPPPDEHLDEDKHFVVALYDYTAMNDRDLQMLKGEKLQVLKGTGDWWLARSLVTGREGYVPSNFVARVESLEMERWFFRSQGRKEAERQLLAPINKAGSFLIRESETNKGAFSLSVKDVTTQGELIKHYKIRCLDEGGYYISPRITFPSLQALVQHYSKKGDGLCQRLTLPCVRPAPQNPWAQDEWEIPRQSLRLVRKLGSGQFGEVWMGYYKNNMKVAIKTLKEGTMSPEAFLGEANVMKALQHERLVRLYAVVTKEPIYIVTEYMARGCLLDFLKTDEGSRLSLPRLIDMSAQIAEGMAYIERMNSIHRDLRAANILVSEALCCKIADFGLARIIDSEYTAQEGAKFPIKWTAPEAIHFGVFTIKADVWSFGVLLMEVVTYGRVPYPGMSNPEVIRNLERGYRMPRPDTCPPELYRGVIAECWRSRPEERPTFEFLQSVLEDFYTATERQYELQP
Sequence of FER (P16591 whole entry): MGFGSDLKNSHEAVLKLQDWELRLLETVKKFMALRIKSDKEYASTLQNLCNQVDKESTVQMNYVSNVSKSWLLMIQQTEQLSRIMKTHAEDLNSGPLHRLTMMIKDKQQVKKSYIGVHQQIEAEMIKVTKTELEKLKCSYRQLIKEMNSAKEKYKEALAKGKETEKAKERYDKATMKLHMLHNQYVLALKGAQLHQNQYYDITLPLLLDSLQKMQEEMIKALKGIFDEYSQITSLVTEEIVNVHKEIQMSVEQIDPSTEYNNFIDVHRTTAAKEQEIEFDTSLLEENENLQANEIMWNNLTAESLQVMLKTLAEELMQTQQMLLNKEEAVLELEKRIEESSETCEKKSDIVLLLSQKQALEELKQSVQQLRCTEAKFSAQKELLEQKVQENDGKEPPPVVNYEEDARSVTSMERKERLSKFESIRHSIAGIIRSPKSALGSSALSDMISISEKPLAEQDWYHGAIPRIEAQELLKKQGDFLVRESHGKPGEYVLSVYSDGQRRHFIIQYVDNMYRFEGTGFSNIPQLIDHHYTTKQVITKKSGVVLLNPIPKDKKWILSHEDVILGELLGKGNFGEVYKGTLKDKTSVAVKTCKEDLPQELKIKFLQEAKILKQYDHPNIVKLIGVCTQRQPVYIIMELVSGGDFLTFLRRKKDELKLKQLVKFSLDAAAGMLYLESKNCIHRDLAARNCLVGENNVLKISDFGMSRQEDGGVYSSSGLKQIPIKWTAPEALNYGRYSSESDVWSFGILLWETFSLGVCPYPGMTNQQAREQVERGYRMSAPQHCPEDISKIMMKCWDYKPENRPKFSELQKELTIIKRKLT
Sequence of IRAK3 (Q9Y616 whole entry): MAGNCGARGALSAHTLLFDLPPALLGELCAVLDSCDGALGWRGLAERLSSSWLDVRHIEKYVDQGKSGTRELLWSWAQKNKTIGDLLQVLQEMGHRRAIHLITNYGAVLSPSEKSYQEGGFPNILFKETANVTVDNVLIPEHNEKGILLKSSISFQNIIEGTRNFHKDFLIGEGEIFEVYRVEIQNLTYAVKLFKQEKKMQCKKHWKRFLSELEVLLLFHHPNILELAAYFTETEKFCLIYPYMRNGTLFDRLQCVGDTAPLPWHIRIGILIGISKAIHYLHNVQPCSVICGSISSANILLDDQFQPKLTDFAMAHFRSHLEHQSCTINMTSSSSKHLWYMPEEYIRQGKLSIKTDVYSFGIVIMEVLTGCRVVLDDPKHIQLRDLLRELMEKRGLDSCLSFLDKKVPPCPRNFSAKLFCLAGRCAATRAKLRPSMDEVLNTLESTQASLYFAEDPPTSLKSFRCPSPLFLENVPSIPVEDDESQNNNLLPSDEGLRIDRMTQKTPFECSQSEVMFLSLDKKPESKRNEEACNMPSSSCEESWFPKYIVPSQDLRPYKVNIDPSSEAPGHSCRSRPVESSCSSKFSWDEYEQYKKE
Sequence of AURKB (Q96GD4 whole entry): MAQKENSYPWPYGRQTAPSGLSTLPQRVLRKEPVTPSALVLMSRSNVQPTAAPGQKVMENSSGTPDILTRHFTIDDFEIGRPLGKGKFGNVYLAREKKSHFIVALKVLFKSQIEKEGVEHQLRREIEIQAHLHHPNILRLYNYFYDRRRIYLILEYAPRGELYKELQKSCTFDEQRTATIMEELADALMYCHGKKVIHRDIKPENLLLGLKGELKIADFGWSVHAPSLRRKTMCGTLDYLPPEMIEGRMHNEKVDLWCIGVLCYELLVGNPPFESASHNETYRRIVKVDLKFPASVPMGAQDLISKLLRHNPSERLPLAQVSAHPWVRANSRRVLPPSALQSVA
Sequence of CDK8 (P49336 whole entry): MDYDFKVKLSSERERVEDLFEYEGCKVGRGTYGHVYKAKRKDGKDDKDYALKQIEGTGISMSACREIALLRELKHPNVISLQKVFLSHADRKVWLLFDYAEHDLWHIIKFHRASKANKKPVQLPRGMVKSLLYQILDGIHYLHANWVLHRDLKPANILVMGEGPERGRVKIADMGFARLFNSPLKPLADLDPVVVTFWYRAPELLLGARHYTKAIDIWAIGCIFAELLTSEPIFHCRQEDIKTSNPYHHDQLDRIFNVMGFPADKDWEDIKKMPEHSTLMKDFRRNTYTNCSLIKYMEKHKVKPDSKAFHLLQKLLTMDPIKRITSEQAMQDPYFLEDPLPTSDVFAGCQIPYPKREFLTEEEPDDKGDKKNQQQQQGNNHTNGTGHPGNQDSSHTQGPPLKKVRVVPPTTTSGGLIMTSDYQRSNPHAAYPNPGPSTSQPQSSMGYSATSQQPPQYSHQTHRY

`CNS(=O)(=O)c1ccc(N(C)C)c(Nc2ncnc3cc(OC)c(OC)cc23)c1` [compound 7, 3-((6,7-dimethoxyquinazolin-4-yl)amino)-4-(dimethylamino)-N-methylbenzenesulfonamide] showed an inhibition at 1 µM [1] of 0%, an inhibition at 1 µM [2] of 0% and an inhibition at 1 µM [3] of 8%. It also gave an inhibition at 1 µM [4] of 22%, an inhibition at 1 µM [5] of 0% and an inhibition at 1 µM [6] of 0%. The inhibition at 1 µM [7] was 17%, the inhibition at 1 µM [8] was 6% and the inhibition at 1 µM [9] was 38%. It also gave an inhibition at 1 µM [10] of 0%, an inhibition at 1 µM [11] of 40% and an inhibition at 1 µM [12] of 0%. For the same compound, the inhibition at 1 µM [13] was 14%, the inhibition at 1 µM [14] was 0% and the inhibition at 1 µM [15] was 0%. For the same compound, the inhibition at 1 µM [16] was 0%, the inhibition at 1 µM [17] was 29% and the inhibition at 1 µM [18] was 21%. For the same compound, the inhibition at 1 µM [19] was 0%, the inhibition at 1 µM [20] was 13% and the inhibition at 1 µM [21] was 0%. It also gave an inhibition at 1 µM [22] of 0%, an inhibition at 1 µM [23] of 0% and an inhibition at 1 µM [24] of 62%.
